This is an account of results in patent US10676465B2, “GLP-1 receptor agonists and uses thereof” (Pfizer Inc., priority 2018, dated 2020).

Test [1] has as its target human GLP-1R (Homo sapiens, UniProt P43220, G168S). Put plainly: CHO GLP-1R Clone H6 - Assay 1 (HTRF cAMP agonist assay). The settings on record: for EC50: CHO GLP-1R Clone H6, cAMP HTRF, geometric mean; for Emax: CHO GLP-1R Clone H6, arithmetic mean, relative to saturating GLP-1 (1 μM). It counts as cell-based. On the technique in general: TR-FRET usually uses a lanthanide donor and a delayed reading to cut background.
Description: GLP-1R-mediated agonist activity was determined with a cell-based functional assay utilizing an HTRF (Homogeneous Time-Resolved Fluorescence) cAMP detection kit (cAMP HI Range Assay Kit; CisBio cat #62AM6PEJ) that measures cAMP levels in the cell. The method is a competitive immunoassay between native cAMP produced by the cells and exogenous cAMP labeled with the dye d2. The tracer binding is visualized by a mAb anti-cAMP labeled with Cryptate. The specific signal (i.e. energy transfer) is inversely proportional to the concentration of cAMP in either standard or experimental sample.
The human GLP-1R coding sequence (NCBI Reference Sequence NP_002053.3, including naturally-occurring variant Gly168Ser) was subcloned into pcDNA3 (Invitrogen) and a cell line stably expressing the receptor was isolated (designated Clone H6).
Cells were removed from cryopreservation, re-suspended in 40 mL of Dulbecco's Phosphate Buffered Saline (DPBS—Lonza Cat #17-512Q) and centrifuged at 800×g for 5 minutes at 22° C. The cell pellet was then re-suspended in 10 mL of growth medium [DMEM/F12 1:1 Mixture with HEPES, L-Gln, 500 mL (DMEM/F12 Lonza Cat #12-719F), 10% heat inactivated fetal bovine serum (Gibco Cat #16140-071), 5 mL of 100× Pen-Strep (Gibco Cat #15140-122), 5 mL of 100×L-Glutamine (Gibco Cat #25030-081) and 500 μg/mL Geneticin (G418) (Invitrogen #10131035)]. A 1 mL sample of the cell suspension in growth media was counted on a Becton Dickinson ViCell to determine cell viability and cell count per mL. The remaining cell suspension was then adjusted with growth media to deliver 2000 viable cells per well using a Matrix Combi Multidrop reagent dispenser, and the cells were dispensed into a white 384 well tissue culture treated assay plate (Corning 3570). The assay plate was then incubated for 48 hours at 37° C. in a humidified environment in 5% carbon dioxide.
Varying concentrations of each compound to be tested (in DMSO) were diluted in assay buffer (HBSS with Calcium/Magnesium (Lonza/BioWhittaker cat #10-527F)/0.1% BSA (Sigma Aldrich cat # A7409-1L)/20 mM HEPES (Lonza/BioWhittaker cat #17-737E) containing 100 μM 3-isobutyl-1-methylxanthin (IBMX; Sigma cat #15879). The final DMSO concentration is 1%.
After 48 hours, the growth media was removed from the assay plate wells, and the cells were treated with 20 μL of the serially diluted compound in assay buffer for 30 minutes at 37° C. in a humidified environment in 5% carbon dioxide. Following the 30 minute incubation, 10 μL of labeled d2 cAMP and 10 μL of anti-cAMP antibody (both diluted 1:20 in cell lysis buffer; as described in the manufacturer's assay protocol) were added to each well of the assay plate. The plates were then incubated at room temperature and after 60 minutes, changes in the HTRF signal were read with an Envision 2104 multi-label plate reader using excitation of 330 nm and emissions of 615 and 665 nm. Raw data were converted to nM cAMP by interpolation from a cAMP standard curve (as described in the manufacturer's assay protocol) and the percent effect was determined relative to a saturating concentration of the full agonist GLP-17-36 (1 μM) included on each plate. EC50 determinations were made from agonist dose-response curves analyzed with a curve fitting program using a 4-parameter logistic dose response equation.

Test [2] concerns the target human GLP-1R (Homo sapiens (Human), UniProt P43220, L260F). Nature of the test: CHO GLP-1R Clone C6 - Assay 2 (HTRF cAMP agonist assay, low receptor density). To be noted: for EC50: CHO GLP-1R Clone C6 (low receptor density), cAMP HTRF, geometric mean; for Emax: read-out: Assay 2 Emax (%), CHO GLP-1R Clone C6 (low receptor density), arithmetic mean, relative to saturating GLP-1 (1 μM).
Description: CHO GLP-1R Clone C6—Assay 2
GLP-1R-mediated agonist activity was determined with a cell-based functional assay utilizing an HTRF (Homogeneous Time-Resolved Fluorescence) cAMP detection kit (cAMP HI Range Assay Kit; Cis Bio cat #62AM6PEJ) that measures cAMP levels in the cell. The method is a competitive immunoassay between native cAMP produced by the cells and exogenous cAMP labeled with the dye d2. The tracer binding is visualized by a mAb anti-cAMP labeled with Cryptate. The specific signal (i.e. energy transfer) is inversely proportional to the concentration of cAMP in either a standard or an experimental sample.
The human GLP-1R coding sequence (NCBI Reference Sequence NP_002053.3, including naturally-occurring variant Leu260Phe) was subcloned into pcDNA5-FRT-TO and a clonal CHO cell line stably expressing a low receptor density was isolated using the Flp-In™ T-Rex™ System, as described by the manufacturer (ThermoFisher).
Cells were removed from cryopreservation, re-suspended in 40 mL of Dulbecco's Phosphate Buffered Saline (DPBS—Lonza Cat #17-512Q) and centrifuged at 800×g for 5 minutes at 22° C. The DPBS was aspirated, and the cell pellet was re-suspended in 10 mL of complete growth medium (DMEM:F12 1:1 Mixture with HEPES, L-Gln, 500 mL (DMEM/F12 Lonza Cat #12-719F), 10% heat inactivated fetal bovine serum (Gibco Cat #16140-071), 5 mL of 100× Pen-Strep (Gibco Cat #15140-122), 5 mL of 100×L-Glutamine (Gibco Cat #25030-081), 700 μg/mL Hygromycin (Invitrogen Cat #10687010) and 15 μg/mL Blasticidin (Gibco Cat # R21001). A 1 mL sample of the cell suspension in growth media was counted on a Becton Dickinson ViCell to determine cell viability and cell count per mL. The remaining cell suspension was then adjusted with growth media to deliver 1600 viable cells per well using a Matrix Combi Multidrop reagent dispenser, and the cells were dispensed into a white 384 well tissue culture treated assay plate (Corning 3570). The assay plate was then incubated for 48 hours at 37° C. in a humidified environment (95% O2, 5% CO2)
Varying concentrations of each compound to be tested (in DMSO) were diluted in assay buffer [HBSS with Calcium/Magnesium (Lonza/BioWhittaker cat #10-527F)/0.1% BSA (Sigma Aldrich cat # A7409-1L)/20 mM HEPES (Lonza/BioWhittaker cat #17-737E)] containing 100 μM 3-isobutyl-1-methylxanthin (IBMX; Sigma cat #15879). The final DMSO concentration in the compound/assay buffer mixture is 1%.
After 48 hours, the growth media was removed from the assay plate wells, and the cells were treated with 20 μL of the serially diluted compound in assay buffer for 30 minutes at 37° C. in a humidified environment (95% O2, 5% CO2). Following the 30 minute incubation, 10 μL of labeled d2 cAMP and 10 μL of anti-cAMP antibody (both diluted 1:20 in cell lysis buffer; as described in the manufacturer's assay protocol) were added to each well of the assay plate. The plates were then incubated at room temperature and after 60 minutes, changes in the HTRF signal were read with an Envision 2104 multi-label plate reader using excitation of 330 nm and emissions of 615 and 665 nm. Raw data were converted to nM cAMP by interpolation from a cAMP standard curve (as described in the manufacturer's assay protocol) and the percent effect was determined relative to a saturating concentration of the full agonist GLP-1 (1 μM) included on each plate. EC50 determinations were made from agonist dose response curves analyzed with a curve fitting program using a 4-parameter logistic dose response equation.

The structures appear in SMILES notation. Read-outs that look alike come from different tables or passages of the source.

Chain of human GLP-1R (Homo sapiens (Human), UniProt P43220, L260F) (P43220 24-463 L260F): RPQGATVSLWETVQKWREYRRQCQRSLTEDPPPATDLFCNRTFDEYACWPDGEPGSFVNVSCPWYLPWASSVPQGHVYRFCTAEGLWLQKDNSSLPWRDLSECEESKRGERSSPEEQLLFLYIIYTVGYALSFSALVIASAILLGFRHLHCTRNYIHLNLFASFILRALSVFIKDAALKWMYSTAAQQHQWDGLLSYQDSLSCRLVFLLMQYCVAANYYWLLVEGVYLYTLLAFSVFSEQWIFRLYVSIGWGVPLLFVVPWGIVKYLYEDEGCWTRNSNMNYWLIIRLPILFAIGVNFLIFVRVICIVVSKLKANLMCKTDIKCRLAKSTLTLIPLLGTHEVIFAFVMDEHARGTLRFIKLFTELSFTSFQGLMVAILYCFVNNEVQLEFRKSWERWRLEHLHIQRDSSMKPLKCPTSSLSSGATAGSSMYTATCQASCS
Chain of human GLP-1R (Homo sapiens, UniProt P43220, G168S) (P43220 24-463 G168S limits assumed): as the sequence (P43220 24-463 L260F) above, with G145S, F237L counted along it

Turning to `COCCn1c(CN2CCC(c3cccc4c3OC(C)(c3ccc(F)c(F)c3)O4)CC2)nc2ccc(C(=O)O)cc21` (stereo not drawn) [Example 41, 2-({4-[2-(3,4-difluorophenyl)-2-methyl-1,3-benzodioxol-4-yl]piperidin-1-yl}methyl)-1-(2-methoxyethyl)-1H-benzimidazole-6-carboxylic acid], the figures for the EC50 on human GLP-1R [1] and at human GLP-1R [2] (Assay 2 EC50 (nM)) were 91 nM and 2000 nM, respectively. Besides, the Emax worked out at 78% at human GLP-1R [1] and 74% at human GLP-1R [2].
On to `COCCn1c(CN2CCC(c3cccc4c3OC(C)(c3ccc(C)nc3)O4)CC2)nc2ccc(C(=O)O)cc21` (stereo not drawn) [Example 42, 1-(2-methoxyethyl)-2-({4-[2-methyl-2-(6-methylpyridin-3-yl)-1,3-benzodioxol-4-yl]piperidin-1-yl}methyl)-1H-benzimidazole-6-carboxylic acid], for which the EC50 turned out to be 120 nM on human GLP-1R [1] and 1700 nM on human GLP-1R [2] (read-out: Assay 2 EC50). In addition, the maximum response (Emax) at human GLP-1R [1] was found to be 93%; at human GLP-1R [2], 83%.
With `CC(=O)N(C)CCn1c(CN2CCC(c3cccc4c3OC(C)(c3ccc(Cl)cc3F)O4)CC2)nc2ccc(C(=O)O)cc21` (stereo not drawn) [Example 43, 1-{2-[acetyl(methyl)amino]ethyl}-2-({4-[2-(4-chloro-2-fluorophenyl)-2-methyl-1,3-benzodioxol-4-yl]piperidin-1-yl}methyl)-1H-benzimidazole-6-carboxylic acid], the EC50 on human GLP-1R [1] is 3.5 nM; on human GLP-1R [2] (read-out: Assay 2 EC50) it was 65 nM. The Emax stood at 88% at human GLP-1R [1] and 86% at human GLP-1R [2].
With `CC1(c2ccc(Cl)cc2F)Oc2cccc(C3CCN(Cc4nc5ccc(C(=O)O)cc5n4Cc4ccccn4)CC3)c2O1` (stereo not drawn) [Example 45, 2-({4-[2-(4-chloro-2-fluorophenyl)-2-methyl-1,3-benzodioxol-4-yl]piperidin-1-yl}methyl)-1-(pyridin-2-ylmethyl)-1H-benzimidazole-6-carboxylic acid], the half-maximal effective concentration (EC50) at human GLP-1R [1] came to 9.9 nM; on human GLP-1R [2] (read-out: Assay 2 EC50) it was 220 nM. For the same compound, the Emax amounted to 81% on human GLP-1R [1] and 79% at human GLP-1R [2].
For `CC1(c2ccc(Cl)cc2F)Oc2cccc(C3CCN(Cc4nc5ccc(C(=O)O)cc5n4CCN4CCOC4=O)CC3)c2O1` (stereo not drawn) [Example 46, 2-({4-[2-(4-chloro-2-fluorophenyl)-2-methyl-1,3-benzodioxol-4-yl]piperidin-1-yl}methyl)-1-[2-(2-oxo-1,3-oxazolidin-3-yl)ethyl]-1H-benzimidazole-6-carboxylic acid], the values for the EC50 at human GLP-1R [1] and on human GLP-1R [2] (read-out: Assay 2 EC50) were 5.2 nM and 57 nM, respectively. The values for the Emax at human GLP-1R [1] and on human GLP-1R [2] were 95% and 96%, respectively.
`CN(C)S(=O)(=O)CCn1c(CN2CCC(c3cccc4c3OC(C)(c3ccc(Cl)cc3F)O4)CC2)nc2ccc(C(=O)O)cc21` (stereo not drawn) [Example 47, 2-({4-[2-(4-chloro-2-fluorophenyl)-2-methyl-1,3-benzodioxol-4-yl]piperidin-1-yl}methyl)-1-[2-(dimethylsulfamoyl)ethyl]-1H-benzimidazole-6-carboxylic acid]: the concentration giving a half-maximal response (EC50) worked out at 42 nM on human GLP-1R [1] and 1400 nM on human GLP-1R [2] (read-out: Assay 2 EC50). The Emax at human GLP-1R [1] stood at 75%; at human GLP-1R [2], 76%.
As to `CC1(c2ccc(Cl)cc2F)Oc2cccc(C3CCN(Cc4nc5ccc(C(=O)O)cc5n4CCN4CCCC4=O)CC3)c2O1` (stereo not drawn) [Example 48, 2-({4-[2-(4-chloro-2-fluorophenyl)-2-methyl-1,3-benzodioxol-4-yl]piperidin-1-yl}methyl)-1-[2-(2-oxopyrrolidin-1-yl)ethyl]-1H-benzimidazole-6-carboxylic acid], the EC50 on human GLP-1R [1] amounted to 14 nM; on human GLP-1R [2] (read-out: Assay 2 EC50), 280 nM. Moreover, the Emax at human GLP-1R [1] was found to be 81%; on human GLP-1R [2], 73%.
In the case of `CC1(c2ccc(Cl)cc2F)Oc2cccc(C3CCN(Cc4nc5ccc(C(=O)O)cc5n4CCn4ccnc4)CC3)c2O1` (stereo not drawn) [Example 50, 2-({4-[2-(4-chloro-2-fluorophenyl)-2-methyl-1,3-benzodioxol-4-yl]piperidin-1-yl}methyl)-1-[2-(1H-imidazol-1-yl)ethyl]-1H-benzimidazole-6-carboxylic acid], the EC50 on human GLP-1R [1] was 12 nM; at human GLP-1R [2] (read-out: Assay 2 EC50), 140 nM. Also, the values for the Emax at human GLP-1R [1] and on human GLP-1R [2] were 87% and 92%, respectively.
The like results for `CCn1ccnc1Cn1c(CN2CCC(c3cccc4c3OC(C)(c3ccc(Cl)cc3F)O4)CC2)nc2ccc(C(=O)O)cc21` (stereo not drawn) [Example 51, 2-({4-[2-(4-chloro-2-fluorophenyl)-2-methyl-1,3-benzodioxol-4-yl]piperidin-1-yl}methyl)-1-[(1-ethyl-1H-imidazol-2-yl)methyl]-1H-benzimidazole-6-carboxylic acid] were, in that order, 19 nM, 280 nM, 80% and 81%.
Turning to `CNC(=O)Cn1c(CN2CCC(c3cccc4c3OC(C)(c3ccc(Cl)cc3F)O4)CC2)nc2ccc(C(=O)O)cc21` (stereo not drawn) [Example 52, 2-({4-[2-(4-chloro-2-fluorophenyl)-2-methyl-1,3-benzodioxol-4-yl]piperidin-1-yl}methyl)-1-[2-(methylamino)-2-oxoethyl]-1H-benzimidazole-6-carboxylic acid], the half-maximal effective concentration (EC50) worked out at 32 nM on human GLP-1R [1] and 570 nM on human GLP-1R [2] (read-out: Assay 2 EC50). Moreover, the figures for the Emax at human GLP-1R [1] and at human GLP-1R [2] were 85% and 80%, respectively.
Turning to `CC1(c2ccc(Cl)cc2F)Oc2cccc(C3CCN(Cc4nc5ccc(C(=O)O)cc5n4CCn4cccn4)CC3)c2O1` (stereo not drawn) [Example 53, 2-({4-[2-(4-chloro-2-fluorophenyl)-2-methyl-1,3-benzodioxol-4-yl]piperidin-1-yl}methyl)-1-[2-(1H-pyrazol-1-yl)ethyl]-1H-benzimidazole-6-carboxylic acid], the EC50 on human GLP-1R [1] came to 3.1 nM; on human GLP-1R [2] (read-out: Assay 2 EC50), 52 nM. The Emax at human GLP-1R [1] came out at 87%; at human GLP-1R [2], 84%.
On to `CC1(c2ccc(Cl)cc2F)Oc2cccc(C3CCN(Cc4nc5ccc(C(=O)O)cc5n4CCCn4cncn4)CC3)c2O1` (stereo not drawn) [Example 54, 2-({4-[2-(4-chloro-2-fluorophenyl)-2-methyl-1,3-benzodioxol-4-yl]piperidin-1-yl}methyl)-1-[3-(1H-1,2,4-triazol-1-yl)propyl]-1H-benzimidazole-6-carboxylic acid], for which the concentration for a half-maximal effect (EC50) at human GLP-1R [1] stood at 18 nM; on human GLP-1R [2] (read-out: Assay 2 EC50), 160 nM. Besides, the results for the Emax at human GLP-1R [1] and at human GLP-1R [2] were 82% and 64%, respectively.
The like results for `Cn1cnc(CCn2c(CN3CCC(c4cccc5c4OC(C)(c4ccc(Cl)cc4F)O5)CC3)nc3ccc(C(=O)O)cc32)c1` (stereo not drawn) [Example 55, 2-({4-[2-(4-chloro-2-fluorophenyl)-2-methyl-1,3-benzodioxol-4-yl]piperidin-1-yl}methyl)-1-[2-(1-methyl-1H-imidazol-4-yl)ethyl]-1H-benzimidazole-6-carboxylic acid] were, in that order, 74 nM, 1100 nM, 81% and 50%.
As for `CC1(c2ccc(Cl)cc2F)Oc2cccc(C3CCN(Cc4nc5ccc(C(=O)O)cc5n4CC4CCOC4)CC3)c2O1` (stereo not drawn) [Example 56, 2-({4-[2-(4-chloro-2-fluorophenyl)-2-methyl-1,3-benzodioxol-4-yl]piperidin-1-yl}methyl)-1-(tetrahydrofuran-3-ylmethyl)-1H-benzimidazole-6-carboxylic acid], the EC50 was 1.2 nM at human GLP-1R [1] and 11 nM at human GLP-1R [2] (read-out: Assay 2 EC50). Also, the figures for the Emax at human GLP-1R [1] and at human GLP-1R [2] were 87% and 81%, respectively.
Turning to `Cn1ncnc1Cn1c(CN2CCC(c3cccc4c3OC(C)(c3ccc(Cl)cc3F)O4)CC2)nc2ccc(C(=O)O)cc21` (stereo not drawn) [Example 57, 2-({4-[2-(4-chloro-2-fluorophenyl)-2-methyl-1,3-benzodioxol-4-yl]piperidin-1-yl}methyl)-1-[(1-methyl-1H-1,2,4-triazol-5-yl)methyl]-1H-benzimidazole-6-carboxylic acid], the figures for the EC50 at human GLP-1R [1] and on human GLP-1R [2] (read-out: Assay 2 EC50) were 15 nM and 500 nM, respectively. The Emax at human GLP-1R [1] came out at 86%; at human GLP-1R [2], 98%.
Consider `CC1(c2ccc(Cl)cc2F)Oc2cccc(C3CCN(Cc4nc5ccc(C(=O)O)cc5n4Cc4cocn4)CC3)c2O1` (stereo not drawn) [Example 58, 2-({4-[2-(4-chloro-2-fluorophenyl)-2-methyl-1,3-benzodioxol-4-yl]piperidin-1-yl}methyl)-1-(1,3-oxazol-4-ylmethyl)-1H-benzimidazole-6-carboxylic acid], for which the figures for the EC50 at human GLP-1R [1] and at human GLP-1R [2] (read-out: Assay 2 EC50) were 4 nM and 23 nM, respectively. The Emax on human GLP-1R [1] came to 98%; on human GLP-1R [2] it was 88%.
Take `CN(C)C(=O)CCn1c(CN2CCC(c3cccc4c3OC(C)(c3ccc(Cl)cc3F)O4)CC2)nc2ccc(C(=O)O)cc21` (stereo not drawn) [Example 59, 2-({4-[2-(4-chloro-2-fluorophenyl)-2-methyl-1,3-benzodioxol-4-yl]piperidin-1-yl}methyl)-1-[3-(dimethylamino)-3-oxopropyl]-1H-benzimidazole-6-carboxylic acid]: the EC50 came to 74 nM on human GLP-1R [1] and 680 nM on human GLP-1R [2] (read-out: Assay 2 EC50). In addition, the Emax on human GLP-1R [1] was 85%; at human GLP-1R [2], 53%.
As for `Cn1cc(CCn2c(CN3CCC(c4cccc5c4OC(C)(c4ccc(Cl)cc4F)O5)CC3)nc3ccc(C(=O)O)cc32)nn1` (stereo not drawn) [Example 60, 2-({4-[2-(4-chloro-2-fluorophenyl)-2-methyl-1,3-benzodioxol-4-yl]piperidin-1-yl}methyl)-1-[2-(1-methyl-1H-1,2,3-triazol-4-yl)ethyl]-1H-benzimidazole-6-carboxylic acid], the figures for the EC50 at human GLP-1R [1] and on human GLP-1R [2] (read-out: Assay 2 EC50) were 15 nM and 240 nM, respectively. Moreover, the maximal effect (Emax) at human GLP-1R [1] came to 82%; at human GLP-1R [2], 60%.

The EC50 is the concentration giving half of the maximal effect. Broadly, the Emax is the size of the effect at its maximum, as opposed to the concentration needed.
